How the values were obtained:
[1] = test system: 5/6-kidney-removed rats (male Wistar); assay: Assessment of renal protective effect 2 (5/6-kidney-removed rats), Test Example 6; assay type: in vivo, rat; conditions: 2 mg/kg/day mixed with feed, vs vehicle-administered group
Procedure: Assessment of Renal Protective Effect 2
7-Week old male Wistar rats (Japan SLC, Inc.) were treated by removing 2/3 of the left kidney under isoflurane anesthesia and then removing the whole right kidney one week later to prepare 5/6-kidney-removed rats. Compound 1 (2 mg/kg/day) mixed with feed was orally administered to the rats from the age of 9 weeks. As a normal control, male Wistar rats at the same age were set as a sham group. […] For statistical analysis, Student's test was conducted between the vehicle-administered group and the Compound 1-administered group. […] For statistical analysis, Student's test or Aspin-Welch was conducted.

human SGLT1 = biological target: T1, human SGLT1 (Homo sapiens, UniProt P13866); assay: Assessment of SGLT1 inhibitory activity (14C-AMG uptake in human SGLT1-stably-expressing CHO-K1 cell line); assay type: cell-based
T1 sequence (P13866 1-664): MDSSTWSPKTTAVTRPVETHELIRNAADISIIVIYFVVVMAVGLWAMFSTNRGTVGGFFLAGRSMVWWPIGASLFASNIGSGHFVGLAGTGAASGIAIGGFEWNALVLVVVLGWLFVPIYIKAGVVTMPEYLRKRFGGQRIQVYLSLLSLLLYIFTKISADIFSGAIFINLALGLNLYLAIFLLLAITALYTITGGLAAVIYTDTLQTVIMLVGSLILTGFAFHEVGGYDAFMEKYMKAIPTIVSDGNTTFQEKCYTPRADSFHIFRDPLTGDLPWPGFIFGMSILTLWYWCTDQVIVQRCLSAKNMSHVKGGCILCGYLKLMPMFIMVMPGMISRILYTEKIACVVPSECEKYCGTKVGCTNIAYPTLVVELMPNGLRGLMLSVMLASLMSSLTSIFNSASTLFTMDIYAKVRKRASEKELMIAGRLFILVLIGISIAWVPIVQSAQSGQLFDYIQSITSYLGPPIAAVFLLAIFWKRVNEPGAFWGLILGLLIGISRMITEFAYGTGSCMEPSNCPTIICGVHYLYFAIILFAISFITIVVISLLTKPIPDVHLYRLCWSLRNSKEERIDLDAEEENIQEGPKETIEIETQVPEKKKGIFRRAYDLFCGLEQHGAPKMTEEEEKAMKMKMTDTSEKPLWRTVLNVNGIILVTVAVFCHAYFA
Procedure: Assessment of SGLT1 Inhibitory Activity
SGLT1 inhibitory activities of test compounds (IC50 values) were calculated based on the amount of intracellular uptake of labelled […] (^14C-AMG) transported by SGLT1.
1) Formation of Human SGLT1-Expressing Plasmid
A DNA fragment containing human SGLT1 was amplified by PCR (Polymerase Chain Reaction) using pCMV6-hSGLT1 (OriGene) as a template. In the human SGLT1, NheI recognition and cleavage sequence was added to the upstream of Kozac consensus sequence derived from a vector, and a stop codon, TAG, and SalI recognition and cleavage sequence were added to the immediate downstream of the protein-translating region of human SGLT1. […]
Human SGLT1-stably-expressing cell lines were seeded at 5×10^4 cells/well on BioCoat™ Poly-D-Lysine 96 well plate with Lid (Becton, Dickinson and Company) and cultured at 37° C. under 5% CO2 overnight. […] In the assessment for the uptake ability of ^14C-AMG, the total amount of the cell lysate was transferred to OptiPlate 96 (Perkin-E1mer) with 100 μL/well of MicroScint-40 (Perkin-E1mer) dispensed and ^14C of CPM was measured with TOPCOUNT NXT (Perkin-E1mer).
Data was calculated by deducting the average value of CPM for blank well from the average value of CPM for each well treated. […]

glucose-loaded SD rats [2] = assay: OGTT (Oral Glucose Tolerance Test), Test Example 2; assay type: in vivo, rat; conditions: 1, 3, or 10 mg/kg oral, 16 hours before glucose load; compared to vehicle
Procedure: (§1) OGTT (Oral Glucose Tolerance Test)
Vehicle (0.5% methylcellulose solution) or Compound 1 (1, 3, or 10 mg/kg) suspended in a 0.5% methylcellulose solution was orally administered in 5 mL/kg to an about 4-hour-fasted male SD rat (8-week old, Nihon Charles River K.K., 6 cases for each group). […] Statistical analyses were based on Steel's multiple test. The significance level was two-sided 5%.

male SDT fatty rats = assay: Assessment of renal protective effect (GFR in SDT fatty rats), Test Example 5; assay type: in vivo, rat; conditions: 2 mg/kg oral once a day, 16 weeks; vs vehicle group of SDT fatty rats
Procedure: Assessment of Renal Protective Effect
Vehicle (0.5% methyl cellulose solution), Compound 1 (2 mg/kg), or dapagliflozin (0.3 mg/kg) was orally administered once a day to male SDT fatty rats (7-week old, CLEA Japan, Inc.); and as a normal control, vehicle was orally administered once a day to male SD rats (7-week old, CLEA Japan, Inc.). 16 Weeks after the administration, GFR (mL/min/100 g B.W.) was measured with a transdermal GFR monitor (MediBeacon). For statistical analysis, Student's test was conducted between the vehicle-administered group of SD rats and the vehicle-administered group of SDT fatty rats. Dunnett's multiple test was conducted for the Compound 1 and dapagliflozin groups to the vehicle group of SDT fatty rats. The significance level was two-sided 5%.

glucose-loaded SD rats [3] = assay: OGTT (Oral Glucose Tolerance Test), Test Example 3; assay type: in vivo, rat; conditions: 3 mg/kg oral, 16 hours before glucose load; compared to vehicle
Procedure: as §1
Vehicle (0.5% methylcellulose solution), or Compound 1, Compound A, or Compound B (3 mg/kg each) suspended in a 0.5% methylcellulose solution was orally administered in 5 mL/kg to an about 4-hour-fasted male SD rat (8-week old, Nihon Charles River K.K., 5 cases for each group).
Statistical analyses were based on Dunnett's multiple group test. The significance level was two-sided 5%.

[4] = test system: Salmonella typhimurium (TA98, TA1537, TA100, and TA1535) and Escherichia coli (WP2 uvrA); assay: Ames test (reverse mutation test), all bacterial tester strains; assay type: cell-based; conditions: any of the bacterial tester strains, with and/or without S9 mix
Text: (§2) Ames Test (Reverse Mutation Test)
(§3) Two plates per treatment were used.

[5] = test system: Salmonella typhimurium TA1535; assay: Ames test (reverse mutation test), TA1535; assay type: cell-based
Text: as §2, §3

[6] = with S9 mix, dose 1667 μg/plate
[7] = with S9 mix, dose 5000 μg/plate
[8] = without S9 mix, dose 6.9 μg/plate
[9] = without S9 mix, dose 21 μg/plate
[10] = without S9 mix, dose 62 μg/plate
[11] = without S9 mix, dose 185 μg/plate
[12] = without S9 mix, dose 556 μg/plate
[13] = without S9 mix, dose 1667 μg/plate
[14] = without S9 mix, dose 5000 μg/plate

Row | Structure (SMILES) | potential to induce reverse mutations [4] | Number of revertant colonies TA1535 ([5]; with S9 mix, dose 6.9 μg/plate) | Number of revertant colonies TA1535 ([5]; with S9 mix, dose 21 μg/plate) | Number of revertant colonies TA1535 ([5]; with S9 mix, dose 62 μg/plate) | Number of revertant colonies TA1535 ([5]; with S9 mix, dose 185 μg/plate) | Number of revertant colonies TA1535 ([5]; with S9 mix, dose 556 μg/plate) | Number of revertant colonies TA1535 [5, 6] | Number of revertant colonies TA1535 [5, 7] | Number of revertant colonies TA1535 [5, 8] | Number of revertant colonies TA1535 [5, 9] | Number of revertant colonies TA1535 [5, 10] | Number of revertant colonies TA1535 [5, 11] | Number of revertant colonies TA1535 [5, 12] | Number of revertant colonies TA1535 [5, 13] | Number of revertant colonies TA1535 [5, 14] | further results
1 | C[C@H]1C(=O)NC[C@@H]1C(=O)Nc1cc(-c2cc(F)cc(OC(C)(C)C)c2)n(C(F)(F)F)n1 [Example 1, (3R,4R)-N-(5-(3-(tert-butoxy)-5-fluorophenyl)-1-(trifluoromethyl)-1H-pyrazol-3-yl)-4-methyl-5-oxopyrrolidine-3-carboxamide] |  |  |  |  |  |  |  |  |  |  |  |  |  |  |  | protein quantities in the urine (mg/mgCr) ([1]; 16, 30, and 69 days): lower than those of the vehicle-administered group; creatinine clearance (mL/min) [1]: significantly higher than that of the vehicle-administered group; urea nitrogen levels (mg/dL) [1]: significantly lower than those of the vehicle-administered group; SGLT1 inhibitory activity (human SGLT1; qualitative statement): confirmed to have the SGLT1 inhibitory activity; blood glucose level after the glucose load (Δ AUC to 120 minutes, % of Vehicle) (glucose-loaded SD rats [2]): significantly reduced the blood glucose level; GFR (mL/min/100 g B.W.) (male SDT fatty rats): inhibited the increase of GFR; blood glucose level after the glucose load (Δ AUC to 120 minutes, % of Vehicle) (glucose-loaded SD rats [3]): significantly reduced the blood glucose level
2 | Nc1cc(-c2cc(F)cc(OC(F)(F)F)c2)n(-c2cncc(F)c2)n1 [Metabolite 3] | did not show potential to induce reverse mutations | 8 | 9 | 11 | 9 | 4 | 3 | 1 | 9 | 11 | 10 | 8 | 8 | 0 | 0 | 
3 | Nc1cc(-c2cc(F)cc(OC(F)(F)F)c2)n(-c2cncc(C(F)(F)F)c2)n1 [Metabolite 5] | did not show potential to induce reverse mutations | 10 | 11 | 10 | 9 | 7 | 4 | 2 | 9 | 11 | 4 | 7 | 6 | 3 | 4 | 
4 | C[C@H]1C(=O)NC[C@@H]1C(=O)Nc1cc(-c2cccc(OC(F)(F)F)c2)n(-c2ccc(Cl)nn2)n1 [Example 10] |  |  |  |  |  |  |  |  |  |  |  |  |  |  |  | inhibition at 0.3 µM (human SGLT1; CHO-K1, at 0.3 μM, read-out: hSGLT1 inhibition): 45%

Source: patent publication US12721844B2, “Chronic kidney disease treatment or prevention method” (Japan Tobacco Inc., priority 2019, dated 2026)
